Values quoted from earlier work in article PMC7904743, “WIDOCK: a reactive docking protocol for virtual screening of covalent inhibitors” (Journal of Computer-Aided Molecular Design, 2021).
Where two headings read alike, the source gives them in different places.

Legend:
NUDT7 = conditions: protein labeling at 200 μM; experimental actives if % labeling higher than 50%; cited from earlier work
OTUB2 = conditions: experimental actives if % labeling higher than 50%; cited from earlier work
[1] = thiol reactivity, cited from earlier work
[2] = natural log of average rate constant k
[3] = natural logarithm of average rate constant

Structure (SMILES) | NUDT7 % labeling (NUDT7) [%] | OTUB2 % labeling (OTUB2) [%] | ln(avg k) [1, 2] | ln(avg k) [1, 3]
CNC(=O)c1cccc(NC(=O)CCl)c1 [PCM-0102113, CNC(=O)c1cccc(NC(=O)CCl)c1] | 0 | 0 | -15.492 | -15.492
CC(=O)Nc1ccc(NC(=O)CCl)cc1 [PCM-0102114, CC(=O)Nc1ccc(NC(=O)CCl)cc1] | 0 | 0 | -16.157 | -16.157
Cc1cccc(NC(=O)CCl)c1 [PCM-0102116, Cc1cccc(NC(=O)CCl)c1] | 0 | 11 | -15.855 | -15.855
CC(NC(=O)CCl)c1cc2ccccc2o1 (stereo not shown) [PCM-0102117, CC(NC(=O)CCl)c1cc2ccccc2o1] | 12 | 41 | -16.443 | -16.443
O=C(CCl)NC12CC3CC(CC(C3)C1)C2 [PCM-0102118, O=C(CCl)NC12CC3CC(CC(C3)C1)C2] | 0 | 0 | -16.476 | -16.476
Cc1ccc(NC(=O)NC(=O)CCl)cc1C [PCM-0102119, Cc1ccc(NC(=O)NC(=O)CCl)cc1C] | 9 | 0 | -16.034 | -16.034
O=C(CCl)Nc1ccc(Cl)cc1 [PCM-0102120, O=C(CCl)Nc1ccc(Cl)cc1] | 18 | 23 | -15.805 | -15.805
O=C(CCl)N1CCN(S(=O)(=O)c2ccc(Cl)s2)CC1 [PCM-0102121, O=C(CCl)N1CCN(S(=O)(=O)c2ccc(Cl)s2)CC1] | 15 | 0 | -15.220 | -15.220
O=C(CCl)NC(=O)NCc1ccccc1 [PCM-0102122, O=C(CCl)NC(=O)NCc1ccccc1] | 0 | 0 | -16.001 | -16.001
O=C(CCl)N1CCc2sccc2C1 [PCM-0102123, O=C(CCl)N1CCc2sccc2C1] | 14 | 39 | -15.106 | -15.106
O=C(CCl)N1CCN(c2ccc(Cl)cc2[N+](=O)[O-])CC1 [PCM-0102125, O=C(CCl)N1CCN(c2ccc(Cl)cc2[N+](=O)[O-])CC1] | 29 | 0 | -15.501 | -15.501
O=C(CCl)Nc1nc2ccc(Br)cc2s1 [PCM-0102126, O=C(CCl)Nc1nc2ccc(Br)cc2s1] | 100 | 12 | -16.235 | -16.235
O=C(CCl)Nc1ccc(Cl)cc1C(=O)O [PCM-0102127, O=C(CCl)Nc1ccc(Cl)cc1C(=O)O] | 0 | 10 | -16.749 | -16.749
CC(NC(=O)CCl)c1ccccc1 (stereo not shown) [PCM-0102128, CC(NC(=O)CCl)c1ccccc1] | 13 | 42 | -16.398 | -16.398
CC(=O)N1CCc2cc(NC(=O)CCl)ccc21 [PCM-0102129, CC(=O)N1CCc2cc(NC(=O)CCl)ccc21] | 7 | 31 | -15.858 | -15.858
Cc1c(Cl)cccc1NC(=O)CCl [PCM-0102130, Cc1c(Cl)cccc1NC(=O)CCl] | 0 | 0 | -15.962 | -15.962
Cc1ccc(-n2nc(C)c(NC(=O)CCl)c2C)cc1 [PCM-0102131, Cc1ccc(-n2nc(C)c(NC(=O)CCl)c2C)cc1] | 0 | 0 | -16.325 | -16.325
O=C(CCl)N1CCN(CC(=O)N2CCOCC2)CC1 [PCM-0102133, O=C(CCl)N1CCN(CC(=O)N2CCOCC2)CC1] | 0 | 15 | -15.992 | -15.992
Cc1cc([N+](=O)[O-])ccc1NC(=O)CCl [PCM-0102134, Cc1cc([N+](=O)[O-])ccc1NC(=O)CCl] | 10 | 11 | -16.240 | -16.240
O=C(CCl)NC1CCS(=O)(=O)C1 (stereo not shown) [PCM-0102138, O=C(CCl)NC1CCS(=O)(=O)C1] | 0 | 0 | -15.936 | -15.936
O=C1CN(C(=O)CCl)C2(CCCCC2)C(=O)N1 [PCM-0102139, O=C1CN(C(=O)CCl)C2(CCCCC2)C(=O)N1] | 22 | 5 | -15.673 | -15.673
COc1ccc(NC(=O)CCl)cn1 [PCM-0102140, COc1ccc(NC(=O)CCl)cn1] | 0 | 0 | -13.166 | -13.166

Structure (SMILES) | NUDT7 % labeling (NUDT7) [%] | OTUB2 % labeling (OTUB2) [%] | ln(avg k) [1, 2] | ln(avg k) [1, 3]
CS(=O)(=O)c1ccccc1NC(=O)CCl [PCM-0102141, CS(=O)(=O)c1ccccc1NC(=O)CCl] | 0 | 0 | -16.264 | -16.264
O=C(CCl)NNC(=O)c1cc2c(s1)CCCC2 [PCM-0102142, O=C(CCl)NNC(=O)c1cc2c(s1)CCCC2] | 9 | 100 | -16.868 | -16.868
Cc1c(C#N)c(NC(=O)CCl)n(-c2cccc(F)c2)c1C [PCM-0102146, Cc1c(C#N)c(NC(=O)CCl)n(-c2cccc(F)c2)c1C] | 58 | 10 | -15.589 | -15.589
N#CCc1ccc(NC(=O)CCl)cc1 [PCM-0102148, N#CCc1ccc(NC(=O)CCl)cc1] | 10 | 43 | -15.302 | -15.302
O=C(CCl)NCc1ccccc1F [PCM-0102149, O=C(CCl)NCc1ccccc1F] | 0 | 62 | -16.082 | -16.082
O=C(CCl)N1CCC(c2ccccc2)=N1 [PCM-0102150, O=C(CCl)N1CCC(c2ccccc2)=N1] | 0 | 0 | -14.898 | -14.898
O=C(CCl)Nc1ccccc1Cl [PCM-0102152, O=C(CCl)Nc1ccccc1Cl] | 0 | 20 | -16.303 | -16.303
O=C(CCl)NC(=O)OCc1ccccc1 [PCM-0102153, O=C(CCl)NC(=O)OCc1ccccc1] | 0 | 79 | -16.245 | -16.245
O=C(CCl)Nc1cccc(I)c1 [PCM-0102154, O=C(CCl)Nc1cccc(I)c1] | 24 | 49 | -15.790 | -15.790
O=C(CCl)N(CC(F)(F)F)c1ccc(Cl)cc1 [PCM-0102155, O=C(CCl)N(CC(F)(F)F)c1ccc(Cl)cc1] | 79 | 0 | -15.883 | -15.883
COc1ccc(NC(=O)CCl)cc1 [PCM-0102156, COc1ccc(NC(=O)CCl)cc1] | 0 | 52 | -15.521 | -15.521
CC(NC(=O)CCl)C1CC1 (stereo not shown) [PCM-0102157, CC(NC(=O)CCl)C1CC1] | 0 | 10 | -17.112 | -17.112
O=C(CCl)Nc1ccccc1F [PCM-0102158, O=C(CCl)Nc1ccccc1F] | 0 | 51 | -16.146 | -16.146
O=C(CCl)N1c2ccccc2NC(=O)C12CCCC2 [PCM-0102159, O=C(CCl)N1c2ccccc2NC(=O)C12CCCC2] | 18 | 0 | -14.824 | -14.824
O=C(CCl)N1CCc2ccccc21 [PCM-0102160, O=C(CCl)N1CCc2ccccc21] | 0 | 0 | -15.869 | -15.869
NS(=O)(=O)c1cccc(NC(=O)CCl)c1 [PCM-0102162, NS(=O)(=O)c1cccc(NC(=O)CCl)c1] | 0 | 58 | -15.171 | -15.171
O=C(CCl)Nc1ccc(O)cc1 [PCM-0102163, O=C(CCl)Nc1ccc(O)cc1] | 0 | 16 | -15.989 | -15.989
NC(=O)c1c(NC(=O)CCl)sc2c1CCC2 [PCM-0102164, NC(=O)c1c(NC(=O)CCl)sc2c1CCC2] | 28 | 0 | -15.581 | -15.581
Cc1cc(S(N)(=O)=O)cc(NC(=O)CCl)c1C [PCM-0102165, Cc1cc(S(N)(=O)=O)cc(NC(=O)CCl)c1C] | 9 | 12 | -16.164 | -16.164
CCc1nnc(NC(=O)CCl)s1 [PCM-0102166, CCc1nnc(NC(=O)CCl)s1] | 21 | 0 | -16.086 | -16.086
Cc1ccc(-c2csc(NC(=O)CCl)n2)cc1 [PCM-0102168, Cc1ccc(-c2csc(NC(=O)CCl)n2)cc1] | 40 | 0 | -15.760 | -15.760
